Source: paper PMC11882969 (Nature Communications, 2025)
“And” between values parts separate entries of the source, which are not always exact repeats. Equal entries are not always repeated.

Biological target: hCB1 (Homo sapiens, UniProt P21554)
Assay: bioSensAll ebBRET signaling profiling, hCB1
Format: cell-based
Parameters: host or cells: HEK293SL cells, transient PEI transfection
Conditions: for Gi1 hCB1 response: Gi1 biosensor; for Gi1 hCB1 / GoB hCB1: single replicate values, FigS6a

Sequence of hCB1 (P21554 whole entry): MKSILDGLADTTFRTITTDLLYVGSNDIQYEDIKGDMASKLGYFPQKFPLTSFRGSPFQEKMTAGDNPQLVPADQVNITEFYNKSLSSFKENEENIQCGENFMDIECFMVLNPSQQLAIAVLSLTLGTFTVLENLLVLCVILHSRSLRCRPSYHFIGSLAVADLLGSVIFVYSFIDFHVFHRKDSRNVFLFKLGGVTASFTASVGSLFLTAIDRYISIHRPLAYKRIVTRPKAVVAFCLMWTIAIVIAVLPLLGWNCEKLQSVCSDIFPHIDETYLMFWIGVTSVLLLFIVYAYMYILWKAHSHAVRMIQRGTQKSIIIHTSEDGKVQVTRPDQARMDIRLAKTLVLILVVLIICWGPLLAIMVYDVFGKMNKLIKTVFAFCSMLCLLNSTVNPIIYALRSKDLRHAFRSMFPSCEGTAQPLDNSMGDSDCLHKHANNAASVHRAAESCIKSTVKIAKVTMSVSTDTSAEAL

**Q.** What does the source list for `Cc1cc(C(=O)N2CC3(CCC3)[C@@H]2[C@@H]2CCCO2)nn1-c1cccc(C(F)(F)F)c1` [‘3386]?
**A.** Gi1 hCB1 response (Log [Compound] (M) -4.22186): -31.6589; Gi1 hCB1 response (Log [Compound] (M) -4.63927): -26.0187; Gi1 hCB1 response (Log [Compound] (M) -5.47381): -11.5379; Gi1 hCB1 response (Log [Compound] (M) -5.89285): -4.6; Gi1 hCB1 response (Log [Compound] (M) -6.31878): 6.86; Gi1 hCB1 response (Log [Compound] (M) -6.72585): -4.577; Gi1 hCB1 response (Log [Compound] (M) -7.14267): -3.682; Gi1 hCB1 response (Log [Compound] (M) -7.55284): 0.369; Gi1 hCB1 response (Log [Compound] (M) -8): -1.959; Gi1 hCB1 response (Log [Compound] (M) -8.22186): -1.847; Gi1 hCB1 response (Log [Compound] (M) -8.39794): 6.792; Gi1 hCB1 response (Log [Compound] (M) -8.68787): 5.83; Gi1 hCB1 response (Log [Compound] (M) -9.15521): -6.435; Gi1 hCB1 response (Log [Compound] (M) -9.61989): 5.561; Gi1 hCB1 response (Log [Compound] (M) -10.0969): -3.167; Gi1 hCB1 response (Log [Compound] (M) -10.5529): 5.808; Gi1 hCB1 response (Log [Compound] (M) -11.0177): 14.3798; Gi1 hCB1 response (Log [Compound] (M) -11.4949): 4.331; Gi1 hCB1 response (Log [Compound] (M) -11.9208): 0.6376; Gi1 hCB1 response (Log [Compound] (M) -12.3979): 3.01; Gi1 hCB1 response (Log [Compound] (M) -12.8861): 17.2222; Gi1 hCB1 response (Log [Compound] (M) -13, individual replicate values): 0.5257 and -2.921; Gi1 hCB1 (Log [Compound] (M) -4.22186): -5.415; GoB hCB1 (Log [Compound] (M) -4.22186): -7.725; Gi1 hCB1 (Log [Compound] (M) -4.63927): -6.833; GoB hCB1 (Log [Compound] (M) -4.63927): -8.211; Gi1 hCB1 (Log [Compound] (M) -5.05788): -4.3047; GoB hCB1 (Log [Compound] (M) -5.05788): -5.316; Gi1 hCB1 (Log [Compound] (M) -5.47381): -2.408; GoB hCB1 (Log [Compound] (M) -5.47381): -3.409; Gi1 hCB1 (Log [Compound] (M) -5.89285): -1.499; GoB hCB1 (Log [Compound] (M) -5.89285): -1.485; Gi1 hCB1 (Log [Compound] (M) -6.31878): 1.292; GoB hCB1 (Log [Compound] (M) -6.31878): 2.327; Gi1 hCB1 (Log [Compound] (M) -6.72585): 0.5361; GoB hCB1 (Log [Compound] (M) -6.72585): 1.033; Gi1 hCB1 (Log [Compound] (M) -7.14267): 0.4282; GoB hCB1 (Log [Compound] (M) -7.14267): 0.7269; Gi1 hCB1 (Log [Compound] (M) -7.55284): 0.9215; GoB hCB1 (Log [Compound] (M) -7.55284): 3.892; Gi1 hCB1 (Log [Compound] (M) -8): 0.7057; GoB hCB1 (Log [Compound] (M) -8): 1.158; Gi1 hCB1 (Log [Compound] (M) -8.22186): 1.7386; GoB hCB1 (Log [Compound] (M) -8.22186): -4.075; Gi1 hCB1 (Log [Compound] (M) -8.39794): -1.406; GoB hCB1 (Log [Compound] (M) -8.39794): 4.1437; Gi1 hCB1 (Log [Compound] (M) -8.68787): 1.2761; GoB hCB1 (Log [Compound] (M) -8.68787): -1.251; Gi1 hCB1 (Log [Compound] (M) -9.15521): 1.261; GoB hCB1 (Log [Compound] (M) -9.15521): -3.967; Gi1 hCB1 (Log [Compound] (M) -9.61989): 1.816; GoB hCB1 (Log [Compound] (M) -9.61989): -0.8377; Gi1 hCB1 (Log [Compound] (M) -10.0969): 0.3511; GoB hCB1 (Log [Compound] (M) -10.0969): 1.158; Gi1 hCB1 (Log [Compound] (M) -10.5529): 1.014; GoB hCB1 (Log [Compound] (M) -10.5529): 1.536; Gi1 hCB1 (Log [Compound] (M) -11.0177): 0.7982; GoB hCB1 (Log [Compound] (M) -11.0177): 0.4571; Gi1 hCB1 (Log [Compound] (M) -11.4949): 1.029; GoB hCB1 (Log [Compound] (M) -11.4949): 2.058; Gi1 hCB1 (Log [Compound] (M) -11.9208): -0.1422; GoB hCB1 (Log [Compound] (M) -11.9208): 1.68; Gi1 hCB1 (Log [Compound] (M) -12.3979): 0.5053; GoB hCB1 (Log [Compound] (M) -12.3979): 2.184; Gi1 hCB1 (Log [Compound] (M) -12.8861): -0.04972; GoB hCB1 (Log [Compound] (M) -12.8861): 1.176; Gi1 hCB1 (Log [Compound] (M) -13): 2.124 and 3.311; GoB hCB1 (Log [Compound] (M) -13): 2.399 and 2.327
